In data set [1] the test system is MEFs immortalized with SV40T antigen. Briefly: cells. As to conditions: Mus musculus, 24 h, read-out: induced cell death of the MEFs immortalized with SV40T antigen.
Data set [2] shares this test system. As to conditions: 24 hours, CTB.
Another data set deals with Lamp1-GFP/ATG5-KO MEFs. Kind of data set: Evaluation of activity to induce alternative autophagy (fluorescent bright spots due to aggregation of Lamp1-GFP). The following applies: for aggregation of Lamp1-GFP, visually determined: concentrations of 10 μM or higher (10 to 50 μM), 5 hours. Format: cell-based, mouse. How it is done:
First, by using a retrovirus, a gene for expression of a Lamp1-GFP fusion protein (also referred to as “Lamp1-GFP”) was introduced into ATG5-deficient mouse embryonic fibroblasts (also referred to as “ATG5-KO MEFs”). Then, a cell with high expression of Lamp1-GFP was cloned and prepared as Lamp1-GFP/ATG5-KO MEFs.
The ATG5-KO MEFs were prepared by introducing a gene for expression of SV40T antigen into MEFs established from an ATG5-deficient C57/B6J mouse at a fetal age of 14.5 days by an electroporation method using an Nucleofector system (manufactured by amaxa) for immortalization. In addition, the retrovirus was prepared by introducing an MSCV-Lamp1-GFP (zeocin resistant) vector into plat E cells, which were retrovirus packaging cells.
To the Lamp1-GFP/ATG5-KO MEFs seeded at 1×10^4/96 wells on the preceding day, each of the test compounds was added at a final concentration of 50 μM, and the Lamp1-GFP/ATG5-KO MEFs were cultured at 37° C. under 10% CO2 for 5 hours.
Then, for observation, Hoechst 33342 (manufactured by invitrogen) was added at a final concentration of 1 ng/ml to each culture liquid, followed by incubation for 5 minutes. Then, the culture liquid was replaced with 100 μl of HBSS. Subsequently, five visual fields per well were photographed at random with IN CELL ANALYZER 1000 (manufactured by GE Healthcare).
Then, the thus obtained novel benzothiophene compounds (TMD-459 and TMD-460) were evaluated for the ability to induce alternative autophagy by the same method as that described in Example 1. Note that, in Example 10, each of the compounds was added to culture liquids at final concentrations of 10, 20, 30, 40, and 50 μM. In addition, compound #9 was also added as a reference example to culture liquids at the above-described concentrations. Then, 5 hours after the addition of each of these compounds, five visual fields per each well were photographed at random with IN CELL ANALYZER 1000, and the presence or absence of fluorescent bright spots due to the aggregation of Lamp1-GFP was visually determined.

Data set [3] concerns p53-deficient cancer cells (53T). Kind of data set: Alternative autophagy-inducing activity in tumor cell line (Lamp2 aggregation, fluorescence and electron microscope). The format is cell-based, mouse. The following applies: 20 μM, six hours, FIGS. 3 to 6. How it is done: In the same manner as in the above-described <Evaluation of Alternative Autophagy-Inducing Activity> using the Lamp1-GFP/ATG5-KO MEFs, each of the compounds #09 and #13 was added at a final concentration of 20 μM to a culture liquid of the tumor cell line (also referred to as “53T”) established from the tumor developed spontaneously in the p53 deficient C57/B6J mouse. […] Note that, in this evaluation, Lamp2 was used instead of Lamp1. FIGS. 3 to 6 show the obtained results.

For data set [4], the system named is tumor cell line 53T implanted in wild-type C57/B6J mice. Kind of data set: In vivo anticancer activity, tumor volume in cancer-bearing mice implanted with 53T. Details: species or system mouse. How it is done: A tumor cell line (also referred to as “53T”) established from a tumor developed spontaneously in a p53 deficient C57/B6J mouse was implanted at 4 sites in the ventral skin of each of wild-type C57/B6J mice at 3×10^5 cells per site. From the following day, the compounds were administered to the mice every other day five times in total. The concentration of each compound was 0.4 μmol/(50 μl DMSO+100 μl PBS)/mouse/administration. In addition, a negative control group to which only the same amount of DMSO was administered was prepared. Then, 21 days (3 weeks) after the implantation, the tumor diameters of the mice were measured, and the tumor volumes were calculated, and compared with that of the control group.
The 53T was implanted at 4 sites in the ventral skin of each of wild-type C57/B6J mice at 3×10^5 cells per site. From the following day, 0 (DMSO alone), 5, 10, or 20 μM of each of compounds #09 and #13 was administered to six mice every other day five times in total. Then, 21 days (3 weeks) after the implantation, the tumor diameters of the mice were measured, and the tumor volumes were calculated. FIGS. 9 and 11 show the obtained results. Note that, in FIGS. 9 and 11, each point indicates the average volume of the tumors at the four sites in a mouse.
In addition, in the same manner as described above, the 53T was implanted in mice, and, from the following day, each of compound #09 at a concentration of 10 μM and compound #13 at a concentration of 5 μM was administered to four cancer-bearing mice every other day five times in total. Then, 21 days (3 weeks) after the implantation, the tumor diameters of the mice were measured, and the tumor volumes were calculated. In addition, a negative control to which DMSO was administered was also prepared, and the tumor volume was calculated in the same manner. In addition, these experiments were conducted three times independently of each other. FIGS. 10 and 12 show the obtained results. Note that in FIGS. 10 and 12, each point indicates the average volume of the tumors at the four sites in a mouse.

Data set [5] deals with 53T implanted in wild-type C57/B6J mice. Kind of data set: Survival rate of cancer-bearing mice. Format: in vivo, mouse. As to conditions: 10 μM every other day 5 times; compared with etoposide at 10 μM, FIGS. 13 to 15.
For data set [6], the system named is fibroblasts (cancer cells) immortalized with SV40. Briefly: Activity to induce cell death specific to cancer cells: cancer cells (CTB survival rate). Format: cell-based. The following applies: 20 μM, FIGS. 7 and 8.
For data set [7], the system named is primary cultured fibroblasts (normal cells). Kind of data set: Activity to induce cell death specific to cancer cells: normal cells (CTB survival rate). Format: cell-based. As to conditions: 20 μM, FIGS. 7 and 8. How it is done: CTB measurement values were obtained in the same manner as in the above-described <Evaluation of In Vitro Anticancer Activity> by adding each of compounds #09 and #13 at a final concentration of 20 μM to culture liquids of primary cultured fibroblasts (normal cells) and fibroblasts (cancer cells) immortalized with SV40. On the basis of the obtained CTB measurement values, the cell survival rate was calculated over time. Note that the cell survival rate was defined as 1-cell death induction rate. FIGS. 7 and 8 show the obtained results.

Data set [8] deals with mouse tumor cell line 53T. Briefly: Evaluation of in vitro anticancer activity (Cell titer blue, cell death induction rate). The format is cell-based. More on the design: key: (CTB of negative control − CTB treated)/CTB of negative control. As to conditions: 24 hours, CTB. How it is done:
First, the mouse tumor cell line 53T was seeded at 2×10^4/well on 96 well plates. Then, on the following day, each of compounds #09 and #13 dissolved in DMSO was added at a final concentration of 1, 5, 10, 20, or 50 μM. In addition, a negative control to which only DMSO was added was prepared. Subsequently, the cells were cultured at 37° C. under 10% CO2 for 24 hours. Then, by using Cell titer blue (CTB) (manufactured by Promega) according to the attached protocol, the amount of the fluorescence of each well of the cells 10 minutes after the addition of the CTB reagent was measured as a CTB measurement value of the cells brought into contact with compound #09 or #13. On the basis of such measurement values, the cell death induction rate of each of compounds #09 and #13 was calculated according to the following formula. Cell death induction rate=(CTB measurement value of negative control−CTB measurement value of cells to which compound was added)/CTB measurement value of negative control
Background: Resazurin is reduced to fluorescent resorufin, in cell work by metabolically active cells.

Like-named read-outs stand apart in the source and are kept apart here.

On to `CCOC(=O)c1c(N)sc2c(OCCN(CC)CC)c(Br)ccc12` [TMD-460, Ethyl 2-Amino-7-[2-(N,N-diethylamino)ethyloxy]-6-bromobenzo[b]thiophene-3-carboxylate], for which the mortality at 20 µM in [1] was ≥ 80%. Moreover, the “Cell death induction rate” value in data set [2] (10 μM) came to 0.7701; in data set [2] (20 μM), 0.875; in [2] (30 μM) it was 0.8885; in [2] (40 μM), 0.8902; in [2] (50 μM) it was 0.8919. Moreover, the “aggregation of Lamp1-GFP, visually determined” value in the data set on Lamp1-GFP/ATG5-KO MEFs was “aggregation of the Lamp1-GFP was observed in all the cells”.

Consider `CCOC(=O)c1c(NC(C)=O)sc2c(OCCN(CC)CC)c(Br)ccc12` [Compound #09, Ethyl 2-Acetylamino-6-bromo-7-[2-(N,N-diethylamino)ethyloxy]benzo[b]thiophene-3-carboxylate], for which, in data set [3], the “aggregation of Lamp2 and occurrence of autophagy” value was “aggregation of the lysosomal protein Lamp2 and occurrence of autophagy were observed”. For the same molecule, in [1], the mortality at 20 µM is ≥ 80%. For the same molecule, in [4] (0, 5, 10, or 20 μM), the “dose dependence of in vivo anticancer activity (FIG. 9)” value is recorded as “dose-dependent activity”. Besides, the “in vivo anticancer activity (tumor volume vs control group, FIG. 2)” value in data set [4] (0.4 μmol/mouse/administration, every other day five times, 21 days after implantation) is given as “selected as compounds having in vivo anticancer activity”. The “in vivo anticancer activity (tumor volume, FIGS. 9 to 12)” value in [4] (5, 10, or 20 μM every other day five times, 21 days after implantation) is on record as “exhibited in vivo anticancer activity”. Also, the “anticancer activity (FIG. 17, tumor volumes in cancer-bearing mice)” value in data set [4] (Example 9) is reported as “had anticancer activity”. In [5], the “improvement effect on the survival rate of the cancer-bearing mice” value is given as “higher improvement effect on the survival rate of the cancer-bearing mice than etoposide”. For the same molecule, in data set [6], the “cell death-inducing activity on cancer cells (cell survival rate over time)” value was “exhibited remarkable cell death-inducing activity on the cancer cells”. For the same molecule, the “Cell death induction rate” value in data set [2] (10 μM) is listed as 0.7426; in [2] (20 μM), 0.887; in data set [2] (30 μM), 0.89; in [2] (40 μM), 0.8913; in data set [2] (50 μM), 0.8848; in data set [8] (1 μM), 0. The “Cell death induction rate” value in data set [8] (5 μM) was 0.07741; in data set [8] (10 μM), 0.1725; in data set [8] (20 μM), 0.6305; in data set [8] (50 μM) it was 0.9456. Moreover, the “cell death of normal cells (cell survival rate over time)” value in [7] is recorded as “hardly induced cell death of the normal cells”. For the same molecule, the “alternative autophagy-inducing activity (FIG. 16)” value in the data set on Lamp1-GFP/ATG5-KO MEFs (Example 9, same method as Example 1) is listed as “having alternative autophagy-inducing activity”. For the same molecule, in the data set on Lamp1-GFP/ATG5-KO MEFs, the “aggregation of Lamp1-GFP, visually determined” value is listed as “aggregation of the Lamp1-GFP was observed in all the cells”.
